These results are taken from patent US5622944A, “Testosterone prodrugs for improved drug delivery” (Affymax Technologies N.V., priority 1995, dated 1997).

Structures can show the parent of a compound that is named as a salt. Where two headings read alike, the source gives them in different places.

Data set [1] in a line: Steady state flux across human skin (iontophoretic). It is filed as in vitro ADME. The protocol:
Another useful factor for in vitro assessment of skin permeability of a target drug or drug complex is steady state flux. Typically, when performing a kinetic analysis of the skin-penetrating ability of a target compound through a membrane, such as skin, such an analysis includes an assessment of the lag time and the steady state flux or permeation rate. The ideal membrane for such determinations is human skin.
Steady state flux across human skin was determined for three distinct testosterone/chemical modifier complexes, as shown in FIG. 5 and in Table 4. In FIG. 5, iontophoretic flux rates over time are plotted for testosterone-17β-stachydrine ester, chloride salt [2.9], (closed circles), testosterone-17β-(L-carnitine ethyl ester) carbonate, iodide salt [1.7] (solid squares), and testosterone-17β-choline carbonate, bromide salt [1.4] (open circles). […] Steady state flux values in FIG. 5 are expressed as testosterone equivalents in units of μg/cm^2 h.
Iontophoretically-induced steady state flux across human skin was determined for three distinct testosterone/chemical modifier complexes, testosterone-17β-stachydrine ester, chloride salt [2.9], testosterone-17β-(L-carnitine ethyl ester) carbonate, iodide salt [1.7], and testosterone-17β-choline carbonate, bromide salt [1.4]. The in vitro skin flux experiments were carried out in a similar fashion to those described above, with the exception that human skin was used as the membrane.
Steady state flux values provide an indication of the total amount of drug (or drug complex) that can penetrate the skin, under a given set of experimental conditions.

The format of data set [2] is in vitro ADME, mouse. To be noted: for Enhancement in in vitro electrotransport skin flux compared to testosterone: hairless mouse skin, vs unmodified testosterone, 'nearly 10-fold enhancement or greater'; for Flux, active electrotransport (ET): active cells (ETm), 100 uA/cm^2, 6 h. The protocol: In vitro electrotransport of testosterone/chemical modifier complexes across hairless mouse skin was evaluated as described in Example 28. The experiments were conducted using modified Valia-Chien cells having 1.0 ml donor and 2.5 ml receptor cells. Anodic transport was carried out using a silver wire-based salt bridge in the donor compartment and a silver chloride cathode in the receptor. Cathodic transport was effected by reversing the electrode configuration. The cells were connected in series and a constant current and temperature were supplied to each cell.
After a predetermined period of time (6 h), aliquots were removed from the receiver phase for immediate analysis by HPLC to determine cumulative flux.
The electrotransport of testosterone/chemical modifier complexes was achieved using modified Valia-Chien cells (1.0 ml donor and 2.5 ml receptor cells). Full thickness, hairless mouse skin (Charles River Labs, Wilmington, Mass.) was soaked for one hour in phosphate buffered saline (PBS, pH=7.4) before placing between each compartment (dermal side of skin facing toward receptor). One passive (P1:data) and two or more (ETm :data) active cells were used to screen each compound.
A 10 mM (1 ml) aqueous solution of testosterone drug/prodrug was placed in the donor (unstirred) compartment and the receptor (stirred) was filled with 2.5 ml of PBS. In order to check for egress due to e.g. damaged skin, a zero hour sample of receptor ([…]) was taken one half hour after the drug solution was placed in the donor compartment. Replacement fluid of equal sample volume was added to the receptor compartment immediately after samples were taken.
Anodic electrotransport was achieved using a silver wire (immersed in a polyvinylalcohol-based salt bridge to minimize junction potential) in the donor compartment and a AgCl cathode in the receptor. […] The electrotransport cells were connected in series and constant current (100 uA/cm^2, […] for a skin area of 0.64 cm^2) and temperature (32° C.) were supplied to each cell. After six hours of active/passive transport, aliquots (200 ul) of the receptor were sampled and immediately analyzed by HPLC.
A standard plot of peak area and concentration for each compound was constructed using HPLC. The peak areas of the samples were determined and the concentrations calculated using the standard data. Cumulative flux was calculated using Quickbasic and reported in nmol/cm^2 /hr.

Data set [3] is described as follows: Water solubility (H2O sol). To be noted: for solubility: H2O sol.
Data set [4] is described as follows: in vitro. Particulars: human, dermal fibroblasts, MTT; for CC50 at 2 h: IC50 2 h (cytotoxicity), 2 h incubation; for CC50 at 16 h: IC50 16 h (cytotoxicity), 16 h incubation. Type of data set: cell-based, human. The protocol: (§1) As discussed above, the chemical modifier, when present in the subject in its free or released form, and in appropriately administered amounts, should preferably be non-toxic. Additionally, any further in vivo degradation products of the chemical modifier should be non-toxic, as well. Table 2 provides in vitro relative cytotoxicity data for a number of testosterone/chemical modifier complexes, prepared in accordance with the invention. The cytotoxicity assessment was carried out by examining the viability of human dermal fibroblasts in the presence of a number of testosterone/chemical modifier complexes in accordance with the present invention. Details of the experimental protocol are summarized in Example 27.
(§2) The viability of human dermal fibroblasts in the presence of the 17-hydroxy sterol/chemical modifier compounds was assayed using MTT (3-[4,5-dimethylthiazol-2-yl]-2,5-diphenyltetrazolium bromide) reduction to formazan by mitochondrial enzymes as an indicator of cytotoxicity (Swisher, et al.). Confluent fibroblast cells were incubated for 2 or 16 hours in the presence of increasing concentrations of drug complex. At the end of the incubation period, medium was replaced for 4 hours by medium containing the tetrazolium salt, MTT. Metabolism of MTT to a blue formazan was quantitated by spectrophotometry at 540 nm.

Data set [5] can be described thus: in vitro. It is filed as in vitro ADME. Particulars: human, serum, 37° C. The protocol:
The hydrolytic activity of the sterol prodrug may be evaluated by studies of the chemical or enzymatic conversion of the prodrug to the unmodified parent compound, as described in Example 26.
Generally, the sterol/chemical modifier complex is dissolved in a minimum amount of a suitable solvent, such as ethanol, and the resulting solution is added to a sample of human serum. Following incubation, aliquots are then removed at various time points and analyzed to determine the extent of hydrolysis. Table I herein lists the representative serum half-lives of a number of testosterone prodrugs according to the present invention.
The rates of conversion are readily determined, for example by spectrophotometric methods or by gas-liquid or high performance liquid chromatography. Half-lives and other kinetic parameters may then be calculated using standard techniques.
Determination of Testosterone Prodrug Hydrolysis in Serum
Stock solutions (6 mM) of the testosterone prodrugs were prepared in ethanol (dissolution was accomplished by vortexing, sonication, or warming at 37° C., as needed). If required for dissolution, one drop of a co-solvent such as dimethylsulfoxide, dimethylformamide or methanol was added. (Acetonitrile is undesirable because it deactivates the serum enzymes).
HPLC separation methods were established for each study by dilution of the above stock solutions (6 μl) in acetonitrile (1 ml) to form 36 μM solutions. Samples (10 μl) were injected onto a Nucleosil 5C8 column (250×4 mm ID) fitted with an additional guard column (11×4 mm ID) and eluted with a mobile phase of approximately 65% HPLC grade water and 35% trifluoroacetic acid in acetonitrile (0.1% TFA in acetonitrile). Exact proportions of the mobile phase eluents were adjusted in each case to give optimum separation and run times.
Freshly defrosted human serum (3 ml, Sigma) was warmed at 37° C. for five minutes and then the testosterone prodrug stock solution (60 μl) was added with vortexing. […] The aliquots were added to 800 μl of 2% zinc sulfate solution in a 1.5 ml disposable microcentrifuge tube, vortexed immediately and centrifuged at 14,000 RPM for 3 minutes. The supernatants (10 μl) were injected onto the HPLC and peak areas used to determine the percent of parent drug formed or percent of prodrug remaining. Serum blanks were prepared similarly by addition of serum to the zinc sulfate solution, followed by centrifugation. Initial (time=0) samples were prepared by adding serum to the zinc sulfate solution, followed by addition of the complex and separation by centrifugation. The time=0 samples, as well as the original stock solutions, were also used to assess the stability of the complex in the absence of enzyme. Half-lives were determined using the following equation : […]
and plotting time (x ordinate) versus the natural logarithm of percent remaining prodrug (y ordinate) to obtain the slope (m) and the y intercept (b).

A further data set relates to human dermal fibroblasts. Nature of the data set: in vitro. Type of data set: cell-based. To be noted: MTT. The protocol:
as §1, §2

Setting [6] is: murine skin, 10 mM donor, 32° C.

The term solubility denotes the dissolved amount per volume that the medium holds. Low readings indicate a poorly soluble substance, high ones a readily soluble substance. As a reminder, the half-life is how long it takes for the measured level to halve. Higher therefore signals slow decline. In the case of `C[C@]12CC[C@H]3[C@@H](CCC4=CC(=O)CC[C@@]43C)[C@@H]1CC[C@@H]2OC(=O)OCC[N+](C)(C)C` [Code 1.4, testosterone-17β-choline carbonate, bromide salt], in data set [1] (iontophoresis (Table 4)), the “Steady State Flux” value was determined as 68 ± 4 nmole/cm^2 /h. Besides, the “Enhancement in in vitro electrotransport skin flux compared to testosterone” value in data set [2] is given as not below 10 fold. Besides, the “Flux, active electrotransport (ET)” value in data set [2] (setting [6]) turned out to be 20.8 ± 21.0 nmol/cm^2 /hr. Besides, in data set [2] (murine skin, passive cells (P), 10 mM donor, 6 h, 32° C.), the “Flux, passive (P)” value is reported as 4.0 ± 0.8 nmol/cm^2 /hr. Besides, in “Degradation (%/d)”, the Degradation stood at 0 %/d. The compound also displayed a solubility in data set [3] of 4 mg/mL. In “in vitro [4]”, the CC50 at 2 h is 966 µM and the CC50 at 16 h came out at 929 µM. The half-life in the data set “in vitro [5]” (HPLC) worked out at 0.4 h.

As to `CCOC(=O)C[C@H](C[N+](C)(C)C)OC(=O)O[C@H]1CC[C@H]2[C@@H]3CCC4=CC(=O)CC[C@]4(C)[C@H]3CC[C@]12C` [Code 1.7, testosterone-17β-(L-carnitine ethyl ester) carbonate, iodide salt], in data set [1] (iontophoresis (Table 4)), the “Steady State Flux” value is 75 ± 14 nmole/cm^2 /h. The “Flux, active electrotransport (ET)” value in data set [2] (setting [6]) is given as 3.6 ± 1.3 nmol/cm^2 /hr. In the data set “Degradation (%/d)”, this compound showed a Degradation of 0 %/d. In data set [3], this compound yielded an H2O sol of 5.3 mg/mL. In “in vitro [4]”, the CC50 at 2 h was determined as 913 µM and the CC50 at 16 h was determined as 849 µM. Further, the half-life in the data set “in vitro [5]” (sample of 82% purity) is 4.2 h.

As to `C[C@]12CC[C@H]3[C@@H](CCC4=CC(=O)CC[C@@]43C)[C@@H]1CC[C@@H]2OC(=O)[C@@H]1CCC[N+]1(C)C` [Code 2.9, testosterone-17β-stachydrine ester, chloride salt], in data set [1] (iontophoresis), the Steady State Flux is on record as 184 nmol/cm^2 /h and the “Steady state flux compared with the other two complexes (1.4, 1.7)” value is reported as “greater than twice that of either of the other two testosterone/chemical modifier complexes”. Besides, the “Steady State Flux” value in data set [1] (iontophoresis (Table 4)) is given as 184 ± 30 nmole/cm^2 /h. In “Degradation (%/d)”, this compound displayed a Degradation of 0 %/d. In data set [3], this compound had a solubility of 22 mg/mL. In the data set “in vitro [4]”, the CC50 at 2 h was determined as 2130 µM and the CC50 at 16 h was 750 µM. In “in vitro [5]” (HPLC), the half-life is 13.7 h.

In the case of `CCOC(=O)C[C@H](C[N+](C)(C)C)OC(=O)O[C@H]1CC[C@H]2[C@@H]3CCC4=CC(=O)CC[C@]4(C)[C@H]3CC[C@]12C` [Code 4.1, testosterone-17β-(L-carnitine ethyl ester) carbonate, bromide salt], in data set [2], the “Enhancement in in vitro electrotransport skin flux compared to testosterone” value is not below 10 fold. Besides, in data set [2] (setting [6]), the “Flux, active electrotransport (ET)” value was 15.7 ± 5.3 nmol/cm^2 /hr. The same compound displayed a Degradation in “Degradation (%/d)” of 1 %/d. This compound yielded an H2O sol in data set [3] of 21.0 mg/mL. Also, the CC50 in the data set on human dermal fibroblasts (read-out: IC50 2 h (cytotoxicity), 2 h incubation, 120 min) is 1400 µM; with human dermal fibroblasts (read-out: IC50 16 h (cytotoxicity), 16 h incubation, 960 min) it was 560 µM. Further, the half-life in the data set “in vitro [5]” (HPLC) was 4 h.
